In patent US20220281846A1, “COMPOUNDS AND COMPOSITIONS FOR THE TREATMENT OF RESPIRATORY DISEASES” (THE UNIVERSITY OF MELBOURNE, priority 2018, published 2022):
Where “and” joins values, the source holds several entries; their conditions need not be identical. Equal values may be shown once. Read-outs that look alike come from different tables or passages of the source.

Experiments:
[1] = In vitro metabolic stability, human liver microsomes; assay type: in vitro ADME
Experimental: Human Microsomal Stability of Compounds of the Invention
In Vitro Metabolic Stability
Incubation: The metabolic stability assay was performed by incubating each test compound in human liver microsomes at 37° C. and a protein concentration of 0.4 mg/mL. The metabolic reaction was initiated by the addition of an NADPH-regenerating system and quenched at various time points over a 60 minute incubation period by the addition of acetonitrile containing diazepam as internal standard. Control samples (containing no NADPH) were included (and quenched at 2, 30 and 60 minutes) to monitor for potential degradation in the absence of cofactor. The human liver microsomes used in this experiment were supplied by XenoTech, lot #1410230. Microsomal incubations were performed at a substrate concentration of 1 μM. Data analysis: Species scaling factors from Ring et al. (2011) JPharmSci, 100:4090-4110 were used to convert the in vitro CLint (μL/min/mg) to an in vivo CLint(mL/min/kg). Hepatic blood clearance and the corresponding hepatic extraction ratio (EH) were calculated using the well stirred model of hepatic extraction in each species, according to the “in vitro T1/2” approach described in Obach (1999) DrugMetab. Dispos. 27:1350-1359. The EH was then used to classify compounds as low(<0.3), intermediate (0.3-0.7), high (0.7-0.95) or very high (>0.95) extraction compounds. Predicted in vivo clearance values have not been corrected for microsomal or plasma protein binding. Species scaling calculations are based on two assumptions: 1) NADPH-dependent oxidative metabolism predominates over other metabolic routes (i.e. direct conjugative metabolism, reduction, hydrolysis, etc.), and; 2) rates of metabolism and enzyme activities in vitro are truly reflective of those that exist in vivo. If significant non-NADPH-mediated degradation is observed in microsome control samples, then assumption (1) is invalid and predicted clearance parameters are therefore not reported.

[2] = Mouse pharmacokinetics, IV and oral administration; assay type: in vivo; settings: male C57BL/6 mice; for concentration at 0.017 h / concentration at 0.033 h / concentration at 0.083 h / concentration at 0.25 h / concentration at 0.5 h / concentration at 1 h / concentration at 2 h / concentration at 4 h / concentration at 7.5 h / concentration at 24 h: male, C57BL/6, mouse
Experimental: PF670462 (2HCl.0.4 mol. eq. isopropanol) and ZH3-138 (unionised) were administered to male C57BL/6 mice by IV (3 mg/kg) or orally (10 mg/kg). IV administration was achieved by bolus injection into the tail vein of mice using 1 mL syringe with 25G×1″ needle at a volume of 3 mL/kg. Oral administration was achieved by gavage needle at a volume of 3 mL/kg.
Intravenous (IV) and oral formulations were prepared using the same method. On the day of dosing, each of the solid compound was dissolved in DMSO to which an aqueous solution containing 10% Captisol was added. Hydrochloric acid (1 M) was used to modify pH for the formulation of ZH3-138 with the purpose of solubilising the compound (see Section B for the final pH of each formulation). The formulations of each compound were thoroughly vortexed, producing colourless solutions for all three compounds.
The systemic exposure of PF670462 and ZH3-138 was studied in non-fasted male C57BL/6 mice weighing 19.8-26.8 g. Mice had access to food and water ad libitum throughout the pre- and post-dose sampling period.
Compounds were dosed to mice by bolus injection into the lateral tail vein (3 mL/kg) for IV administration and by gavage (3 mL/kg) for oral administration. Following IV and oral administration, blood samples were collected up to 24 h (n=3 mice per time point) with a maximum of three samples from each mouse. Samples were collected via submandibular bleed (approximately 120 μL; conscious sampling). No urine samples were collected as mice were housed in bedded cages.
Blood was collected into polypropylene Eppendorf tubes containing heparin as anticoagulant and stabilisation cocktail (containing Complete® (a protease inhibitor cocktail) and potassium fluoride) to minimise the potential for ex vivo compound degradation in blood/plasma samples.
Once collected, blood samples were centrifuged immediately, supernatant plasma was removed, and stored at −80° C. until analysis by LC-MS.
Plasma samples were quantified against calibration standards prepared by spiking blank mouse plasma (50 μL) with solution standards (10 μL) obtained by diluting a stock solution of test compound (1 mg/mL in DMSO) with 50% acetonitrile in water. Diazepam (10 μL of 5 μg/mL in 50% acetonitrile/water) was added to all plasma calibration standards and samples as an internal standard (IS). The extraction of the test compound and IS from plasma was conducted using protein precipitation with acetonitrile. Protein precipitation was carried out by the addition of acetonitrile followed by vortexing and centrifugation (10,000 rpm) for 3 minutes to obtain supernatant for analysis using the LC-MS conditions described in Table 7.

Predicted EH (hepatic extraction ratio) ([1]; human liver microsomes): <0.22 | microsomal CLint at 1 μM ([1]; human liver microsomes, 1 μM): < 7 µL/min/mg | half-life at 1 μM ([1]; human liver microsomes, 1 μM, 0.4 mg/mL protein, 37° C.): > 4.25 h | Predicted CLblood ([1]; scaled from human liver microsomes, well stirred model): <5 mL/min/kg | CLint scaled at 1 μM ([1]; scaled from human liver microsomes, read-out: Predicted CLint, in vivo): < 6 mL/min/kg | apparent blood clearance [2]: low | apparent blood volume of distribution [2]: moderate | time post-dose for which plasma concentration was measurable (above LLQ) ([2]; 24 h sampling period): ≥ 24 h | Plasma Concentration, Individual ([2]; IV 2.69 mg/kg, 0.017 h, 2.69 mg/kg): 11.4 µM and 9.81 µM | Plasma Concentration, Individual ([2]; IV 2.69 mg/kg, 0.033 h, 2.69 mg/kg): 6.30 µM and 9.37 µM | Plasma Concentration, Individual ([2]; IV 2.69 mg/kg, 0.083 h (actual sampling time was 0.10 h), 2.69 mg/kg): 5.94 µM and 5.95 µM | Plasma Concentration, Individual ([2]; IV 2.69 mg/kg, 0.25 h, 2.69 mg/kg): 4.68 µM and 4.21 µM | Plasma Concentration, Individual ([2]; IV 2.69 mg/kg, 0.5 h, 2.69 mg/kg): 4.12 µM and 4.28 µM | Plasma Concentration, Individual ([2]; IV 2.69 mg/kg, 1.0 h, 2.69 mg/kg): 2.73 µM and 3.70 µM | Plasma Concentration, Individual ([2]; IV 2.69 mg/kg, 2.0 h, 2.69 mg/kg): 5.24 µM and 4.00 µM | Plasma Concentration, Individual ([2]; IV 2.69 mg/kg, 4.0 h, 2.69 mg/kg): 3.53 µM and 3.63 µM | Plasma Concentration, Individual ([2]; IV 2.69 mg/kg, 7.5 h, 2.69 mg/kg): 1.77 µM and 1.54 µM | Plasma Concentration, Individual ([2]; IV 2.69 mg/kg, 24 h, 2.69 mg/kg): 0.0287 µM and 0.0211 µM | Plasma Concentration, Individual ([2]; oral 8.96 mg/kg, 0.25 h, 8.96 mg/kg): 14.7 µM and 8.96 µM | Plasma Concentration, Individual ([2]; oral 8.96 mg/kg, 0.50 h, 8.96 mg/kg): 11.3 µM and 22.5 µM | Plasma Concentration, Individual ([2]; oral 8.96 mg/kg, 1.0 h, 8.96 mg/kg): 16.2 µM and 14.4 µM | Plasma Concentration, Individual ([2]; oral 8.96 mg/kg, 2.0 h, 8.96 mg/kg): 17.4 µM and 17.7 µM | Plasma Concentration, Individual ([2]; oral 8.96 mg/kg, 4.0 h, 8.96 mg/kg): 10.2 µM and 15.1 µM | Plasma Concentration, Individual ([2]; oral 8.96 mg/kg, 7.5 h, 8.96 mg/kg): 5.97 µM and 8.71 µM | Plasma Concentration, Individual ([2]; oral 8.96 mg/kg, 24 h, 8.96 mg/kg): 0.0400 µM and 0.0758 µM | time of apparent secondary peak in concentration-time profile ([2]; post-dose): 2 h | concentration at 0.017 h ([2]; plasma, iv, 2.69 mg/kg, IV 2.69 mg/kg, 0.017 h, read-out: Plasma Concentration, Individual): 11.1 µM | concentration at 0.017 h ([2]; plasma, iv, 2.69 mg/kg, IV 2.69 mg/kg, 0.017 h, read-out: Plasma Concentration, Mean): 10.8 µM | concentration at 0.033 h ([2]; plasma, iv, 2.69 mg/kg, IV 2.69 mg/kg, 0.033 h, read-out: Plasma Concentration, Individual): 7.86 µM | concentration at 0.033 h ([2]; plasma, iv, 2.69 mg/kg, IV 2.69 mg/kg, 0.033 h, read-out: Plasma Concentration, Mean): 7.84 µM | concentration at 0.083 h ([2]; plasma, iv, 2.69 mg/kg, IV 2.69 mg/kg, 0.083 h (actual sampling time was 0.10 h), read-out: Plasma Concentration, Individual): 5.29 µM | concentration at 0.083 h ([2]; plasma, iv, 2.69 mg/kg, IV 2.69 mg/kg, 0.083 h (actual sampling time was 0.10 h), read-out: Plasma Concentration, Mean): 5.73 µM | concentration at 0.25 h ([2]; plasma, iv, 2.69 mg/kg, IV 2.69 mg/kg, 0.25 h, read-out: Plasma Concentration, Individual): 5.04 µM | concentration at 0.25 h ([2]; plasma, iv, 2.69 mg/kg, IV 2.69 mg/kg, 0.25 h, read-out: Plasma Concentration, Mean): 4.65 µM | concentration at 0.5 h ([2]; plasma, iv, 2.69 mg/kg, IV 2.69 mg/kg, 0.5 h, read-out: Plasma Concentration, Individual): 4.01 µM | concentration at 0.5 h ([2]; plasma, iv, 2.69 mg/kg, IV 2.69 mg/kg, 0.5 h, read-out: Plasma Concentration, Mean): 4.14 µM | concentration at 1 h ([2]; plasma, iv, 2.69 mg/kg, IV 2.69 mg/kg, 1.0 h, read-out: Plasma Concentration, Individual): 2.93 µM | concentration at 1 h ([2]; plasma, iv, 2.69 mg/kg, IV 2.69 mg/kg, 1.0 h, read-out: Plasma Concentration, Mean): 3.12 µM | concentration at 2 h ([2]; plasma, iv, 2.69 mg/kg, IV 2.69 mg/kg, 2.0 h, read-out: Plasma Concentration, Individual): 4.42 µM | concentration at 2 h ([2]; plasma, iv, 2.69 mg/kg, IV 2.69 mg/kg, 2.0 h, read-out: Plasma Concentration, Mean): 4.55 µM | concentration at 4 h ([2]; plasma, iv, 2.69 mg/kg, IV 2.69 mg/kg, 4.0 h, read-out: Plasma Concentration, Individual): 3.74 µM | concentration at 4 h ([2]; plasma, iv, 2.69 mg/kg, IV 2.69 mg/kg, 4.0 h, read-out: Plasma Concentration, Mean): 3.63 µM | concentration at 7.5 h ([2]; plasma, iv, 2.69 mg/kg, IV 2.69 mg/kg, 7.5 h, read-out: Plasma Concentration, Individual): 1.84 µM | concentration at 7.5 h ([2]; plasma, iv, 2.69 mg/kg, IV 2.69 mg/kg, 7.5 h, read-out: Plasma Concentration, Mean): 1.72 µM | concentration at 24 h ([2]; plasma, iv, 2.69 mg/kg, IV 2.69 mg/kg, 24 h, read-out: Plasma Concentration, Individual): 0.0237 µM | concentration at 24 h ([2]; plasma, iv, 2.69 mg/kg, IV 2.69 mg/kg, 24 h, read-out: Plasma Concentration, Mean): 0.0245 µM | concentration at 0.25 h ([2]; plasma, po, 8.96 mg/kg, oral 8.96 mg/kg, 0.25 h, read-out: Plasma Concentration, Individual): 12.1 µM | concentration at 0.25 h ([2]; plasma, po, 8.96 mg/kg, oral 8.96 mg/kg, 0.25 h, read-out: Plasma Concentration, Mean): 11.9 µM | concentration at 0.5 h ([2]; plasma, po, 8.96 mg/kg, oral 8.96 mg/kg, 0.50 h, read-out: Plasma Concentration, Individual): 13.7 µM | concentration at 0.5 h ([2]; plasma, po, 8.96 mg/kg, oral 8.96 mg/kg, 0.50 h, read-out: Plasma Concentration, Mean): 15.8 µM | concentration at 1 h ([2]; plasma, po, 8.96 mg/kg, oral 8.96 mg/kg, 1.0 h, read-out: Plasma Concentration, Individual): 13.9 µM | concentration at 1 h ([2]; plasma, po, 8.96 mg/kg, oral 8.96 mg/kg, 1.0 h, read-out: Plasma Concentration, Mean): 14.8 µM | concentration at 2 h ([2]; plasma, po, 8.96 mg/kg, oral 8.96 mg/kg, 2.0 h, read-out: Plasma Concentration, Individual): 13.8 µM | concentration at 2 h ([2]; plasma, po, 8.96 mg/kg, oral 8.96 mg/kg, 2.0 h, read-out: Plasma Concentration, Mean): 16.3 µM | concentration at 4 h ([2]; plasma, po, 8.96 mg/kg, oral 8.96 mg/kg, 4.0 h, read-out: Plasma Concentration, Individual): 11 µM | concentration at 4 h ([2]; plasma, po, 8.96 mg/kg, oral 8.96 mg/kg, 4.0 h, read-out: Plasma Concentration, Mean): 12.1 µM | concentration at 7.5 h ([2]; plasma, po, 8.96 mg/kg, oral 8.96 mg/kg, 7.5 h, read-out: Plasma Concentration, Individual): 6.59 µM | concentration at 7.5 h ([2]; plasma, po, 8.96 mg/kg, oral 8.96 mg/kg, 7.5 h, read-out: Plasma Concentration, Mean): 7.09 µM | concentration at 24 h ([2]; plasma, po, 8.96 mg/kg, oral 8.96 mg/kg, 24 h, read-out: Plasma Concentration, Individual): 0.0513 µM | concentration at 24 h ([2]; plasma, po, 8.96 mg/kg, oral 8.96 mg/kg, 24 h, read-out: Plasma Concentration, Mean): 0.0557 µM | half-life ([2]; mouse, plasma, read-out: apparent half-life (converted)): ~3 h
Compound: Nc1nccc(-c2c(-c3ccc(F)cc3)ncn2C2CCC(F)(F)CC2)n1 [ZH3-138, 4-(1-(4,4-Difluorocyclohexyl)-4-(4-fluorophenyl)-1H-imidazol-5-yl)pyrimidin-2-amine]
